# Measurements published in ChEMBL document CHEMBL3102801, “Synthesis and antiproliferative activity of new derivatives containing the polycyclic system 5,7:7,13-dimethanopyrazolo[3,4-b]pyrazolo[3',4':2,3]azepino[4,5-f]azocine” (Eur J Med Chem, 2014).
# Tests used:
# Type in all cases: functional
# [1] = Growth inhibition of human HCC2998 cells after 48 hrs by sulforhodamine B assay; conditions: HCC 2998, 48 h
# NCI-H522 = assay: Growth inhibition of human NCI-H522 cells after 48 hrs by sulforhodamine B assay; conditions: NCI-H522, 48 h
# NCI-H322M = assay: Growth inhibition of human NCI-H322M cells after 48 hrs by sulforhodamine B assay
# NCI-H23 = assay: Growth inhibition of human NCI-H23 cells after 48 hrs by sulforhodamine B assay; conditions: NCI-H23, 48 h
# NCI-H226 = assay: Growth inhibition of human NCI-H226 cells after 48 hrs by sulforhodamine B assay; conditions: NCI-H226, 48 h
# [2] = Growth inhibition of human HOP92 cells after 48 hrs by sulforhodamine B assay; conditions: HOP-92, 48 h
# HOP-62 = assay: Growth inhibition of human HOP62 cells after 48 hrs by sulforhodamine B assay; conditions: HOP-62, 48 h
# T47D = assay: Growth inhibition of human T47D cells after 48 hrs by sulforhodamine B assay
# BT-549 = assay: Growth inhibition of human BT549 cells after 48 hrs by sulforhodamine B assay; conditions: BT-549, 48 h
# [3] = Growth inhibition of human Hs 578T cells after 48 hrs by sulforhodamine B assay
# MDA-MB-231 = assay: Growth inhibition of human MDA-MB-231 cells after 48 hrs by sulforhodamine B assay; conditions: MDA-MB-231, 48 h
# MCF7 = assay: Growth inhibition of human MCF7 cells after 48 hrs by sulforhodamine B assay; conditions: MCF7, 48 h
# PC-3 = assay: Growth inhibition of human PC3 cells after 48 hrs by sulforhodamine B assay; conditions: PC-3, 48 h
# [4] = Growth inhibition of human UO31 cells after 48 hrs by sulforhodamine B assay; conditions: UO-31, 48 h
# TK-10 = assay: Growth inhibition of human TK10 cells after 48 hrs by sulforhodamine B assay; conditions: TK-10, 48 h
# SN12C = assay: Growth inhibition of human SN12C cells after 48 hrs by sulforhodamine B assay
# [5] = Growth inhibition of human RXF393 cells after 48 hrs by sulforhodamine B assay; conditions: RXF 393, 48 h
# A498 = assay: Growth inhibition of human A498 cells after 48 hrs by sulforhodamine B assay; conditions: A498, 48 h
# SK-OV-3 = assay: Growth inhibition of human SKOV3 cells after 48 hrs by sulforhodamine B assay; conditions: SK-OV-3, 48 h
# 786-0 = assay: Growth inhibition of human 786-0 cells after 48 hrs by sulforhodamine B assay; conditions: 786-0, 48 h
# [6] = Growth inhibition of human NCI-ADR-RES cells after 48 hrs by sulforhodamine B assay
# [7] = Growth inhibition of human OVCAR5 cells after 48 hrs by sulforhodamine B assay; conditions: OVCAR-5, 48 h
# [8] = Growth inhibition of human OVCAR4 cells after 48 hrs by sulforhodamine B assay; conditions: OVCAR-4, 48 h
# IGROV-1 = assay: Growth inhibition of human IGROV1 cells after 48 hrs by sulforhodamine B assay; conditions: IGROV-1, 48 h
# SK-MEL-28 = assay: Growth inhibition of human SK-MEL-28 cells after 48 hrs by sulforhodamine B assay; conditions: SK-MEL-28, 48 h
# SK-MEL-2 = assay: Growth inhibition of human SK-MEL-2 cells after 48 hrs by sulforhodamine B assay; conditions: SK-MEL-2, 48 h
# Malme-3M = assay: Growth inhibition of human MALME-3M cells after 48 hrs by sulforhodamine B assay
# [9] = Growth inhibition of human SF539 cells after 48 hrs by sulforhodamine B assay; conditions: SF-539, 48 h
# SNB-19 = assay: Growth inhibition of human SNB19 cells after 48 hrs by sulforhodamine B assay; conditions: SNB-19, 48 h
# SF-268 = assay: Growth inhibition of human SF268 cells after 48 hrs by sulforhodamine B assay; conditions: SF-268, 48 h
# HT-29 = assay: Growth inhibition of human HT-29 cells after 48 hrs by sulforhodamine B assay; conditions: HT-29, 48 h
# HCT-15 = assay: Growth inhibition of human HCT15 cells after 48 hrs by sulforhodamine B assay; conditions: HCT-15, 48 h
# HCT-116 = assay: Growth inhibition of human HCT116 cells after 48 hrs by sulforhodamine B assay; conditions: HCT-116, 48 h
# NCI-H460 = assay: Growth inhibition of human NCI-H460 cells after 48 hrs by sulforhodamine B assay; conditions: NCI-H460, 48 h
# A549 = assay: Growth inhibition of human A549 cells after 48 hrs by sulforhodamine B assay; conditions: A549, 48 h
# MDA-MB-468 = assay: Growth inhibition of human MDA-MB-468 cells after 48 hrs by sulforhodamine B assay; conditions: MDA-MB-468, 48 h
# DU-145 = assay: Growth inhibition of human DU145 cells after 48 hrs by sulforhodamine B assay; conditions: DU-145, 48 h
# ACHN = assay: Growth inhibition of human ACHN cells after 48 hrs by sulforhodamine B assay
# OVCAR-8 = assay: Growth inhibition of human OVCAR8 cells after 48 hrs by sulforhodamine B assay; conditions: OVCAR-8, 48 h
# OVCAR-3 = assay: Growth inhibition of human OVCAR3 cells after 48 hrs by sulforhodamine B assay; conditions: OVCAR-3, 48 h
# [10] = Growth inhibition of human UACC257 cells after 48 hrs by sulforhodamine B assay; conditions: UACC-257, 48 h
# UACC-62 = assay: Growth inhibition of human UACC62 cells after 48 hrs by sulforhodamine B assay; conditions: UACC-62, 48 h
# MDA-MB-435 = assay: Growth inhibition of human MDA-MB-435 cells after 48 hrs by sulforhodamine B assay; conditions: MDA-MB-435, 48 h
# U-251 = assay: Growth inhibition of human U251 cells after 48 hrs by sulforhodamine B assay; conditions: U-251, 48 h
smiles,measurement,setting,value
Cc1nn(-c2ccccc2)c2c1C(C)C1CC3(CC4(C)CC3C1(C)c1c(C)nn(-c3ccccc3)c1N4C)N2C (stereo not drawn),GI50,[1],> 100 µM
same,GI50,NCI-H522,3.88 µM
same,GI50,NCI-H322M,> 100 µM
same,GI50,NCI-H23,> 100 µM
same,GI50,NCI-H226,> 100 µM
same,GI50,[2],0.792 µM
same,GI50,HOP-62,18.3 µM
same,GI50,T47D,2.64 µM
same,GI50,BT-549,> 100 µM
same,GI50,[3],> 100 µM
same,GI50,MDA-MB-231,> 100 µM
same,GI50,MCF7,3.46 µM
same,GI50,PC-3,0.591 µM
same,GI50,[4],> 100 µM
same,GI50,TK-10,> 100 µM
same,GI50,SN12C,> 100 µM
same,GI50,[5],3.41 µM
same,GI50,A498,> 100 µM
same,GI50,SK-OV-3,24.1 µM
same,GI50,786-0,> 100 µM
same,GI50,[6],> 100 µM
same,GI50,[7],> 100 µM
same,GI50,[8],8.66 µM
same,GI50,IGROV-1,> 100 µM
same,GI50,SK-MEL-28,3.14 µM
same,GI50,SK-MEL-2,> 100 µM
same,GI50,Malme-3M,> 100 µM
same,GI50,[9],> 100 µM
same,GI50,SNB-19,> 100 µM
same,GI50,SF-268,> 100 µM
C=C1c2c(C)nn(-c3ccccc3)c2N(C)C23CC1C1(C)c4c(C)nn(-c5ccccc5)c4N(C)C(C)(CC12)C3 (stereo not drawn),GI50,HT-29,3.59 µM
same,GI50,HCT-15,3.67 µM
same,GI50,HCT-116,3.72 µM
same,GI50,[1],6.22 µM
same,GI50,NCI-H522,2.12 µM
same,GI50,NCI-H460,3.35 µM
same,GI50,NCI-H322M,33.8 µM
same,GI50,NCI-H23,7.99 µM
same,GI50,NCI-H226,15.3 µM
same,GI50,[2],0.549 µM
same,GI50,A549,2.37 µM
same,GI50,HOP-62,7.15 µM
same,GI50,MDA-MB-468,2.9 µM
same,GI50,T47D,2.13 µM
same,GI50,BT-549,5.55 µM
same,GI50,[3],5.67 µM
same,GI50,MDA-MB-231,4.55 µM
same,GI50,MCF7,2.99 µM
same,GI50,PC-3,0.979 µM
same,GI50,DU-145,8.7 µM
same,GI50,TK-10,4.77 µM
same,GI50,SN12C,9.92 µM
same,GI50,[5],2.04 µM
same,GI50,ACHN,4.78 µM
same,GI50,A498,4.28 µM
same,GI50,SK-OV-3,4.64 µM
same,GI50,786-0,11.8 µM
same,GI50,[6],6.04 µM
same,GI50,OVCAR-8,5.41 µM
same,GI50,[7],> 100 µM
same,GI50,[8],4.49 µM
same,GI50,OVCAR-3,4.58 µM
same,GI50,IGROV-1,11.9 µM
same,GI50,[10],2.87 µM
same,GI50,UACC-62,4.38 µM
same,GI50,SK-MEL-28,2.26 µM
same,GI50,SK-MEL-2,6.78 µM
same,GI50,MDA-MB-435,4.12 µM
same,GI50,Malme-3M,4.19 µM
same,GI50,U-251,4.44 µM
same,GI50,[9],26.7 µM
same,GI50,SNB-19,11 µM
same,GI50,SF-268,7.52 µM
COc1ccc(-n2nc(C)c3c2N(C)C2(C)CC4C3(C)C3CC4(C2)N(C)c2c(c(C)nn2-c2ccc(OC)cc2)C3C)cc1 (stereo not drawn),GI50,HT-29,3.39 µM
same,GI50,HCT-116,2.09 µM
same,GI50,[1],9.65 µM
same,GI50,NCI-H522,0.891 µM
same,GI50,NCI-H460,3.69 µM
same,GI50,NCI-H322M,22.4 µM
same,GI50,NCI-H23,18.7 µM
same,GI50,NCI-H226,5.34 µM
same,GI50,A549,3.29 µM
same,GI50,HOP-62,3.1 µM
same,GI50,MDA-MB-468,4.76 µM
same,GI50,T47D,2.44 µM
same,GI50,BT-549,4.17 µM
same,GI50,[3],4.27 µM
same,GI50,MDA-MB-231,6.35 µM
same,GI50,MCF7,4.02 µM
same,GI50,PC-3,1.71 µM
same,GI50,DU-145,23 µM
same,GI50,TK-10,4.77 µM
same,GI50,SN12C,8.07 µM
same,GI50,[5],2.92 µM
same,GI50,ACHN,6.13 µM
same,GI50,A498,3.95 µM
same,GI50,SK-OV-3,2.53 µM
same,GI50,786-0,5.47 µM
same,GI50,[6],8.03 µM
same,GI50,OVCAR-8,4.19 µM
same,GI50,[7],> 100 µM
same,GI50,[8],5.95 µM
same,GI50,OVCAR-3,7.14 µM
same,GI50,IGROV-1,19.5 µM
same,GI50,[10],2.34 µM
same,GI50,UACC-62,12.6 µM
same,GI50,SK-MEL-28,1.52 µM
same,GI50,SK-MEL-2,7.29 µM
same,GI50,Malme-3M,6.34 µM
same,GI50,U-251,3.94 µM
same,GI50,[9],63.5 µM
same,GI50,SNB-19,4.45 µM
same,GI50,SF-268,4.08 µM
